# How the values were obtained:
# Assay type in all cases: cell-based
# [1] = test system: Enterobacter cloacae IFO 12937; assay: MIC by agar dilution method (Experimental Example); conditions: IFO12937; test organism (1) Enterobacter cloacae IFO 12937; Trypticase soy agar; inoculum about 10^8 CFU/ml; overnight culture at 37°C; complete growth inhibition
# Method: (§1) The MIC of each test compound was determined by the agar dilution method. Thus, a stock aqueous solution of each test compound is serially diluted and the resultant dilution series are put in petri dishes. Then, 9.0 ml of Trypticase soy agar per dish is added and mixed. Each of the agar plates is smeared with a suspension of the test organism (about 10^8 CFU/ml). After overnight culture at 37°C, the minimum concentration of the test compound that caused a complete growth inhibition of the organism is taken as the MIC (minimal inhibitory concentration) value.
# (§2) • (1) Enterobacter cloacae IFO 12937 • (2) Klebsiella pneumoniae TN 1711
# [2] = test system: Klebsiella pneumoniae TN 1711; assay: MIC by agar dilution method (Experimental Example); conditions: TN1711; test organism (2) Klebsiella pneumoniae TN 1711; Trypticase soy agar; inoculum about 10^8 CFU/ml; overnight culture at 37°C; complete growth inhibition
# Method: as §1, §2
# [3] = test system: Pseudomonas aeruginosa GN 3407; assay: MIC by agar dilution method (Test Example); conditions: GN3407; test organism (3) Pseudomonas aeruginosa GN 3407; Trypticase soy agar; inoculum about 10^6 CFU/ml; overnight at 37°C
# Method: (§3) The MIC values for the test compounds were determined by the agar dilution method. Thus, 1.0 ml of each serially diluted aqueous solution of each test compound was poured into a petri dish. Then, 9.0 ml of Trypticase soy agar was added and mixed with the aqueous solution. A suspension of the test organism (about 10^6 CFU/ml) was smeared onto the mixed agar plate and incubated overnight at 37°C.
# (§4) • (1) Enterobacter cloacae IFO 12937 • (2) Klebsiella pneumoniae TN 1711 • (3) Pseudomonas aeruginosa GN 3407
# [4] = test system: Enterobacter cloacae IFO 12937; assay: MIC by agar dilution method (Test Example); conditions: IFO12937; test organism (1) Enterobacter cloacae IFO 12937; Trypticase soy agar; inoculum about 10^6 CFU/ml; overnight at 37°C
# Method: as §3, §4
# [5] = test system: Klebsiella pneumoniae TN 1711; assay: MIC by agar dilution method (Test Example); conditions: TN1711; test organism (2) Klebsiella pneumoniae TN 1711; Trypticase soy agar; inoculum about 10^6 CFU/ml; overnight at 37°C
# Method: as §3, §4
SMILES,MIC [1] [µg/mL],MIC [2] [µg/mL],MIC [3] [µg/mL],MIC [4] [µg/mL],MIC [5] [µg/mL]
CC(C)(O/N=C(\C(=O)N[C@@H]1C(=O)N(S(=O)(=O)[O-])[C@@H]1C[n+]1ccccc1)c1csc(N)n1)C(=O)O (relative stereo) [Monosodium cis-3-[2-(2-amino-4-thiazolyl)-2-(Z)-(1-carboxylato-1-methylethoxyimino)acetamido]-4-pyridiniomethyl-2-azetidinone-1-sulfonate],3.13,12.5,,,
CO/N=C(\C(=O)N[C@@H]1C(=O)N(S(=O)(=O)O)[C@@H]1C(N)=O)c1csc(N)n1 (relative stereo) [Sodium cis-3-[2-(2-amino-4-thiazolyl)-2-(Z)-methoxyiminoacetamido]-4-carbamoyl-2-azetidinone-1-sulfonate],1.56,0.39,,,
COC(=O)CC[C@@H]1[C@H](NC(=O)/C(=N\OC(C)(C)C(=O)O)c2csc(N)n2)C(=O)N1S(=O)(=O)O (relative stereo) [cis-3-[2-(2-Amino-4-thiazolyl)-2-(Z)-(1-carboxy-1-methylethoxyamino)acetamido]-4-(2-methoxy-carbonylethyl)-2-azetidinone-1-sulfonic acid],6.25,3.13,,,
CC(C)(O/N=C(\C(=O)N[C@@H]1C(=O)N(S(=O)(=O)O)[C@@H]1CNC(N)=O)c1csc(N)n1)C(=O)O (relative stereo) [cis-3-[2-(2-Amino-4-thiazolyl)-2-(Z)-(1-carboxy-1-methylethoxyimino)acetamido]-4-ureidomethyl-2-azetidinone-1-sulfonic acid],12.5,3.13,,,
COC[C@@H]1[C@H](NC(=O)/C(=N\OCC(=O)O)c2csc(N)n2)C(=O)N1S(=O)(=O)O (relative stereo) [cis-3-[2-(2-Amino-4-thiazolyl)-2-(Z)-carboxy-methoxyiminoacetamido]-4-methoxymethyl-2-azetidinone-1-sulfonic acid],3.13,0.1,,,
NC(=O)OC[C@@H]1[C@H](NC(=O)/C(=N\OCC(=O)O)c2csc(N)n2)C(=O)N1S(=O)(=O)O [Example 2'],,,1.56,0.05,0.05
CC(C)(O/N=C(\C(=O)N[C@@H]1C(=O)N(S(=O)(=O)O)[C@@H]1COC(N)=O)c1csc(N)n1)C(=O)O [Example 4'],,,6.25,0.39,0.1
"CON=C(C(=O)NC1C(=O)N(S(=O)(=O)O)C1CC(C)=O)c1csc(N)n1 (stereo not drawn) [Sodium [3S,4S]-cis-3-[(2-(2-aminothiazol-4-yl)-2-(Z)-methoxyimino]acetamido]-4-(2-oxopropyl)-2-azetidinone-1-sulfonate]",3.13,3.13,,,
"CO/N=C(\C(=O)N[C@@H]1C(=O)N(S(=O)(=O)O)[C@H]1CC(C)=O)c1csc(N)n1 [Sodium [3S, 4S]-trans-3-[2-(2-aminothiazol-4-yl]-2-(Z)-methoxyimino]acetamido]-4-(2-oxopropyl)-2-azetidinone-1-sulfonate]",6.25,,,,

# Other lines, results leading:
MIC [1] [µg/mL],MIC [2] [µg/mL],MIC [3] [µg/mL],MIC [4] [µg/mL],MIC [5] [µg/mL],SMILES
1.56,0.2,,,,COC[C@@H]1[C@H](NC(=O)/C(=N\OC(C)(C)C(=O)O)c2csc(N)n2)C(=O)N1S(=O)(=O)O (relative stereo) [cis-3-[2-(2-Amino-4-thiazolyl)-2-(Z)-(1-carboxy-1-methylethoxyimino)acetamido]-4-methoxymethyl-2-azetidinone-1-sulfonic acid]
12.5,1.56,,,,CC(C)(O/N=C(\C(=O)N[C@@H]1C(=O)N(S(=O)(=O)O)[C@@H]1CS(C)(=O)=O)c1csc(N)n1)C(=O)O (relative stereo) [cis-3-[2-(2-Amino-4-thiazolyl)-2-(Z)-(1-carboxy-1-methylethoxyimino)acetamido]-4-methylsulfonyl-methyl-2-azetidinone-1-sulfonic acid]
3.13,0.78,,,,C[S+]([O-])C[C@@H]1[C@H](NC(=O)/C(=N\OC(C)(C)C(=O)O)c2csc(N)n2)C(=O)N1S(=O)(=O)O (relative stereo) [cis-3-[2-(2-Amino-4-thiazolyl)-2-(Z)-(1-carboxy-1-methylethoxyimino]acetamido]-4-methylsulfinyl-methyl-2-azetidinone-1-sulfonic acid]
12.5,0.78,,,,"CCC[C@H]1[C@H](NC(=O)/C(=N\OC(C)(C)C(=O)O)c2csc(N)n2)C(=O)N1S(=O)(=O)O [Sodium [3S,4S]-3-[(2-(2-aminothiazol-4-yl)-2-(Z)-(1-carboxy-1-methylethoxyimino)acetamido]-4-propyl-2-azetidinone-1-sulfonate]"
12.5,3.13,,,,"CC(=O)CC1C(NC(=O)C(=NOC(C)(C)C(=O)O)c2csc(N)n2)C(=O)N1S(=O)(=O)O (centres unmarked) [Sodium [3S,4S]-3-[(2-(2-aminothiazol-4-yl)-2-(Z)-(1-carboxy-1-methylethoxyimino]acetamido]-4-(2-oxopropyl)-2-azetidinone-1-sulfonate]"

# Reference: EP0093376B2, “1-Sulfo-2-azetidinone derivatives, their production and use” (Takeda Chemical Industries, Ltd., priority 1982, dated 1983)
